Reference: US20110171174A1, “Synergistic Combinations of a Macrocyclic Inhibitor of HCV and a Nucleoside” (ORTHO-MCNEIL-JANSSEN PHARMACEUTICALS, INC., priority 2008, published 2011)

Tested on: HCV replicon (Huh-7 luc/neo cells, NS3-NS5B regions of HCV type 1b)
Assay: HCV replicon assay (Huh-Luc cells, luciferase read-out)
Assay type: cell-based
Conditions: Hepatitis C virus, Huh-7, 72 h, three days incubation, luciferase activity, read-out: average EC50 value in the HCV replicon test
Text: The in vitro antiviral activity against HCV of the compound of formula I or of formula II can be tested in a cellular HCV replicon system based on Lohmann et al. (1999) Science 285:110-113, with the further modifications described by Krieger et al. (2001) Journal of Virology 75: 4614-4624 (incorporated herein by reference), which is further exemplified in the examples section. This model, while not a complete infection model for HCV, is widely accepted as the most robust and efficient model of autonomous HCV RNA replication currently available. The in vitro antiviral activity against HCV can also be tested by enzymatic tests.
The compounds of formula I were examined for activity in the inhibition of HCV RNA replication in a cellular assay. […] The cellular assay was based on a bicistronic expression construct, as described by Lohmann et al. (1999) Science vol. […]
The replicon cells were plated in 384 well plates in the presence of the test and control compounds which were added in various concentrations. Following an incubation of three days, HCV replication was measured by assaying luciferase activity (using standard luciferase assay substrates and reagents, and a Perkin Elmer ViewLux™ ultraHTS microplate imager). […] The inhibitory activity of the compound was monitored on the Huh-Luc cells, enabling a dose-response curve for each test compound. […]

Row | SMILES | EC50
1 | COc1ccc2c(O[C@@H]3C[C@H]4C(=O)N[C@]5(C(=O)NS(=O)(=O)C6CC6)C[C@H]5C=CCCCCN(C)C(=O)[C@@H]4C3)cc(-c3nc(C(C)C)cs3)nc2c1C (stereo in doubt) [compound I, (1R,4R,6S,15R,17R)-cis-N-[17-[2-(4-isopropylthiazole-2-yl)-7-methoxy-8-methyl-quinolin-4-yloxy]-13-methyl-2,14-dioxo-3,13-diazatricyclo[13.3.0.0^4,6]octadec-7-ene-4-carbonyl](cyclopropyl)sulfonamide] | 8 nM
2 | C[C@@H]1[C@H](n2ccc(N)nc2=O)O[C@@](CO)(N=[N+]=[N-])[C@H]1O [compound II, 4-amino-1-((2R,3 S,4S,5R)-5-azido-4-hydroxy-5-hydroxymethyl-3-methyltetrahydro-furan-2-yl)-1H-pyrimidin-2-one] | 5000 nM
